# Measured values published in patent US20130261066A1, “TREATMENT OF INFLAMMATORY BOWEL DISEASES USING A TRIPEPTIDE” (THE RESEARCH FOUNDATION OF STATE UNIVERSITY OF NEW YORK, priority 2010, published 2013).
# Entries after “also recorded” stand apart in the source; their conditions may differ.
# What was measured:
# Assay type in all cases: in vivo
# [1] = system: TNBS-induced colitis; assay: TNBS-induced colitis (experimental Crohn's disease) in SJL/J mice
# Procedure: TNBS (2,4,6-trinitro benzene sulfonic acid) induces a form of colitis in SJL/J mice that recapitulates Crohn's disease. The optimal dose of TNBS was determined to be 100 μl of a 2.5% ethanolic solution instilled intracolonically. SJL mice received 2.5% TNBS solution in 50% ethanol by intra-colonic instillation using a 3.5 F catheter, which was inserted 4 cm into the colon under mild ketamine/xylazine anesthesia. Mice received MC-12 25 mg/kg or vehicle ip twice a day for two days. Body weight was monitored daily and mice were euthanized on the third day when blood and colon tissues were collected as described above for further analysis.
# The fixed colon was cut into six equal fragments, dehydrated and embedded into paraffin. The tissue sections were stained with hematoxylin and eosin (H&E). The histological score was determined by two pathologists as described, based on the degree (0-3) and extent (0-3) of inflammation, crypt damage (0-4) and the area involved (0-4). The scores of each of the first three parameters were multiplied by the fourth and the sum of these three multiples was the final score (ranging from 0 to 40).
# [2] = system: myeloperoxidase (MPO); assay: Myeloperoxidase activity in colon tissue of DSS-treated mice
# Procedure: To further assess the effect of MC12 on the inflammatory changes associated with DSS induced colitis, myeloperoxidase (MPO) activity and cytosolic phospholipase A2 (cPLA2) in tissue samples was determined.
# MPO activity is an indicator of the degree of acute inflammation in a given tissue. MPO activity was measured using a commercial kit and following the instructions of the manufacturer (Invitrogen, Eugene, Oreg.). Briefly, a portion of colon tissue was homogenized in PBS and centrifuged at 10,000×g for 15 min and 50 μl of supernatant from each sample were added into a 96-well microplate. 50 μl of 2×APF working solution was added to all sample and standard wells and the plate was incubated at room temperature for 30 min. The reaction was stopped by adding 10 μl of 10× chlorination inhibitor. The fluorescence intensity was measured using a Multiplate Reader (Molecular Devices) at excitation at 485 nm, emission at 530 nm.
# To assess the effect of MC-12 on the inflammatory changes associated with DSS-induced colitis, myeloperoxidase activity in tissue samples was determined as above.
# [3] = system: NF-κB; assay: Phospho-NF-κB p65 immunohistochemistry of colonic mucosa, DSS mice; conditions: for NF-κB activation / nuclear translocation in colonic mucosa: MC-12 5 and 25 mg/kg, ip and po
# Excerpt: NF-κB is the master regulator of inflammation, controlling the transcription of many genes related to this complex process. It is also the molecular target of the activity of MC 12. Therefore, we determined by immunohistochemistry the level of NF-κB activation in the colonic mucosa of our four study groups of mice. There was minimum or […] activation of NF-κB in the colon of control animals (FIG. 4A). DSS, as expected, activated NF-κB in both colonic crypts and stromal cells (FIG. 4B).
# The level of NF-κB activation in the colonic mucosa was determined by immunohistochemistry (FIG. 9). NF-κB is the molecular target of MC-12. Immunohistochemical staining for phospho-NF-κB (activate form of NF-κB) was performed on the colon tissue samples. Briefly, paraffin-embedded sections (4 μm thick) were deparaffinized, rehydrated, and microwave heated for 15 minutes in 0.01 mol/L citric acid buffer (pH 6.0) for antigen retrieval. Then, 3% hydrogen peroxide was applied to block endogenous peroxidase activity. After 30 minutes of blocking with normal serum (Invitrogen, Carlsbad, Calif.), the primary rabbit anti-phospho-NF-κB p65 antibody (Cell Signaling) or corresponding control isotype IgG were applied and incubated overnight at 4° C. Slides were washed thrice with PBS, each for 5 minutes. The biotinylated secondary antibody and the streptavidin-biotin complex were applied, each for 60 minutes incubation and following a thrice-wash at room temperature. After rinsing with PBS, the slides were immersed for 10 minutes in 3,3′-diaminobenzidine (Sigma, St. Louis, Mo.) solution (0.4 mg/mL, with 0.003% hydrogen peroxide), monitored under microscope. The reactions were stopped with distilled water. The slides were counterstained with hematoxylin, dehydrated, and coverslipped. Five photos per section were taken and the positive luminosity was evaluated using PhotoShop program.
# [4] = system: DSS-induced colitis; assay: DSS-induced colitis in mice, MC-12 5 or 25 mg/kg ip or po (Example 4); conditions: for reduction of histological score compared to DSS control: p<0.01
substance,measurement,setting,value
Gln-Ala-Trp (QAW) [MC12],inflammatory cell infiltration and crypt loss (histology),[1]; 25 mg/kg bid for 2 d,decreased the inflammatory cell infiltration and crypt loss
same,TNBS-caused shortening of colon length,[1]; 25 mg/kg ip bid 2 d,did not prevent this effect
same,reduction of body weight on day 3 compared to baseline,"[1]; 25 mg/kg ip bid 2 d, TNBS alone 18.2%",15.3%
same,histological score (mean±SEM),"[1]; 25 mg/kg ip bid 2 d, TNBS control 38.3±1.7, scale 0 to 40",23.3±3.3
same,reduction of histological score compared to TNBS control,"[1]; 25 mg/kg ip bid 2 d, p<0.01",39.1%
same,prevention of weight loss,[1]; 25 mg/kg ip twice a day for two days,did not prevent weight loss
same,MPO activity,[2]; MC12 80 μg dose,essentially normalized
same,MPO activity,[2]; MC12 40 or 80 μg,significant (p<0.01) and concentration-dependent reduction in MPO activity
same,MPO activity,[2]; MC-12 25 mg/kg,essentially normalized
same,MPO activity,[2]; MC-12 5 or 25 mg/kg,significant (p<0.01) and concentration-dependent reduction in MPO activity
same,NF-κB activation in colonic mucosa,[3]; MC12 40 and 80 μg ip,less NF-κB nuclear translocation; also recorded: markedly decreased this effect of DSS
same,NF-κB activation / nuclear translocation in colonic mucosa,[3]; listed as MC 12,marked decrease of NF-κB nuclear translocation
same,NF-κB activation / nuclear translocation in colonic mucosa,[3]; listed as MC-12,markedly decreased this effect of DSS in a clear dose-dependent manner
same,NF-κB activation in colonic mucosa,[3]; highest dose 25 mg/kg,essentially normalizing it
same,reduction of histological score compared to DSS control,[4]; 5 mg/kg po,50.2%
same,DSS-induced colonic inflammation (H&E histology),[4]; 25 mg/kg orally,also decreased DSS-induced colonic inflammation
same,reduction of histological score compared to DSS control,[4]; 25 mg/kg po,48.4%
same,increase in weight compared to baseline,"[4]; highest ip dose 500 μg/day, day 8",7.7%
